From ChEMBL document CHEMBL3585263, “Novel Octahydropyrrolo[3,4-c]pyrroles Are Selective Orexin-2 Antagonists: SAR Leading to a Clinical Candidate” (J Med Chem, 2015)
≈ marks a conversion by molar mass, not a printed value. One block for each compound: values may come before it.

Tests used:
Orexin receptor type 2 [1] = molecular target: T1, Orexin receptor type 2 (Homo sapiens, UniProt O43614); experiment: Binding affinity to human OX2 receptor
T1 sequence (O43614 whole entry): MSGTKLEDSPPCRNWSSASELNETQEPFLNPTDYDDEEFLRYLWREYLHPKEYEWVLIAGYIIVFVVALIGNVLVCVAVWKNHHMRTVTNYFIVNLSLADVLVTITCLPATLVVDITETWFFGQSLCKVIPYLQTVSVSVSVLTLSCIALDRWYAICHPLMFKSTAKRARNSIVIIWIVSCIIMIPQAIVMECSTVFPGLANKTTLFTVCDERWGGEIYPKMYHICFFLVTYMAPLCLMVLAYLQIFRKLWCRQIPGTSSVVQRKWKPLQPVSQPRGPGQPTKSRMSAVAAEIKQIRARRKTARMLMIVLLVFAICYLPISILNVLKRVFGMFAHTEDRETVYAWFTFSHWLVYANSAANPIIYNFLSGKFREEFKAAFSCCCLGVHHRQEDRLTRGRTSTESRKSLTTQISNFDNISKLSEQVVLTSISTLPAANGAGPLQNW

[2] = molecular target: T2, Orexin/Hypocretin receptor type 1 (Homo sapiens, UniProt O43613); experiment: Binding affinity to human OX1 receptor
T2 sequence (O43613 whole entry): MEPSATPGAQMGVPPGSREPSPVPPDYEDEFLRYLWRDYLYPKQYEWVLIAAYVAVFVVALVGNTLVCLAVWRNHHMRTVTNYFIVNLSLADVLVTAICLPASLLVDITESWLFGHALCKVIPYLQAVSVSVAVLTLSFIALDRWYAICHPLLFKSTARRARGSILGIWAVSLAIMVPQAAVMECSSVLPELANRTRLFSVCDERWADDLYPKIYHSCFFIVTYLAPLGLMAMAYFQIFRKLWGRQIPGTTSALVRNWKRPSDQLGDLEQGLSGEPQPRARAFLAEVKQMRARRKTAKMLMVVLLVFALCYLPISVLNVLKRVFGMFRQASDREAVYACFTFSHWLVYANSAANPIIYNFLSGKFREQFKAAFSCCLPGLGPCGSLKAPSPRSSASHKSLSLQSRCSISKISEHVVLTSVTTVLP

Orexin receptor type 2 [3] = molecular target: T1, Orexin receptor type 2; experiment: Displacement of [3H]EMPA from human OX2 receptor expressed in human PFSK-1 cells; type: cell-based
[4] = molecular target: T2, Orexin/Hypocretin receptor type 1; experiment: Binding affinity to human OX1 receptor expressed in CHO cell membranes by scintillation counting analysis
[5] = Chemical stability of the compound assessed as compound remaining at ambient relative humidity at 22 degC after 4 weeks by HPLC analysis; type: physicochemical; conditions: read-out: Stability
Orexin receptor type 2 [6] = molecular target: T3, Orexin receptor type 2 (Rattus norvegicus, UniProt P56719); experiment: Binding affinity to rat OX2 receptor
T3 sequence (P56719 whole entry): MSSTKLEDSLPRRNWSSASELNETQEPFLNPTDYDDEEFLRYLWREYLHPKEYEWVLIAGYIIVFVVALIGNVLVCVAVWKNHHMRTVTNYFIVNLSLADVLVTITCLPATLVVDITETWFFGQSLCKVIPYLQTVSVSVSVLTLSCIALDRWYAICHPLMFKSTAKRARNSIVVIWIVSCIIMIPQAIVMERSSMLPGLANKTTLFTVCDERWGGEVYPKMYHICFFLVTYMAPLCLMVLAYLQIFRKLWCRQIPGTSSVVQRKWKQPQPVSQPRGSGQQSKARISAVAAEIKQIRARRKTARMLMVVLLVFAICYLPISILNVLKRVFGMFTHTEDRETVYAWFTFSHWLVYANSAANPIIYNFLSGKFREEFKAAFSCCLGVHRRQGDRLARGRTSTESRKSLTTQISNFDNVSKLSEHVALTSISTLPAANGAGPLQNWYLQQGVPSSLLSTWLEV

Rattus norvegicus [7] = experiment: Ex vivo OX2 receptor occupancy in Sprague-Dawley rat brain at 30 mg/kg, po after 15 mins by autoradiographic analysis; type: functional
[8] = Clearance in Sprague-Dawley rat at 10 mg/kg, po and 1 mg/kg, iv; type: ADME, organism-based; conditions: in vivo
[9] = Volume of distribution at steady state in Sprague-Dawley rat at 10 mg/kg, po and 1 mg/kg, iv; type: ADME, organism-based; conditions: in vivo, read-out: Vdss
[10] = Half life in Sprague-Dawley rat at 1 mg/kg, iv; type: ADME, organism-based; conditions: in vivo
[11] = Oral bioavailability in Sprague-Dawley rat at 10 mg/kg; type: ADME, organism-based; conditions: in vivo
Plasma [12] = experiment: Plasma protein binding in human at 1 uM after 6 hrs by equilibrium dialysis method; type: ADME, cell-free; conditions: 6 h, 1 µM
Plasma [13] = experiment: Plasma protein binding in rat at 1 uM after 6 hrs by equilibrium dialysis method; type: ADME, cell-free; conditions: 6 h, 1 µM
[14] = Protein binding in rat brain at 5 uM after 5 hrs by equilibrium dialysis method; type: ADME, tissue-based; conditions: read-out: PB (converted)
[15] = Clearance in Balb/c mouse at 10 mg/kg, po and 1 mg/kg, iv; type: ADME, organism-based; conditions: in vivo
[16] = Clearance in beagle dog at 10 mg/kg, po and 1 mg/kg, iv; type: ADME, organism-based, Canis lupus familiaris; conditions: in vivo
[17] = Clearance in cynomolgus monkey at 10 mg/kg, po and 1 mg/kg, iv; type: ADME, organism-based, Macaca fascicularis; conditions: in vivo
[18] = Volume of distribution at steady state in Balb/c mouse at 10 mg/kg, po and 1 mg/kg, iv; type: ADME, organism-based; conditions: in vivo, read-out: Vdss
[19] = Volume of distribution at steady state in beagle dog at 10 mg/kg, po and 1 mg/kg, iv; type: ADME, organism-based, Canis lupus familiaris; conditions: in vivo, read-out: Vdss
[20] = Volume of distribution at steady state in cynomolgus monkey at 10 mg/kg, po and 1 mg/kg, iv; type: ADME, organism-based, Macaca fascicularis; conditions: in vivo, read-out: Vdss
[21] = Half life in Balb/c mouse at 1 mg/kg, iv; type: ADME, organism-based; conditions: in vivo
[22] = Half life in beagle dog at 1 mg/kg, iv; type: ADME, organism-based, Canis lupus familiaris; conditions: in vivo
[23] = Half life in cynomolgus monkey at 1 mg/kg, iv; type: ADME, organism-based, Macaca fascicularis; conditions: in vivo
[24] = Oral bioavailability in Balb/c mouse at 10 mg/kg; type: ADME, organism-based; conditions: in vivo
[25] = Oral bioavailability in beagle dog at 10 mg/kg; type: ADME, organism-based, Canis lupus familiaris; conditions: in vivo
[26] = Oral bioavailability in cynomolgus monkey at 10 mg/kg; type: ADME, organism-based, Macaca fascicularis; conditions: in vivo
[27] = Fraction unbound in mouse plasma at 0.1 to 10 uM after 6 hrs by equilibrium dialysis method; type: ADME, cell-free
Plasma [28] = experiment: Fraction unbound in rat plasma at 0.1 to 10 uM after 6 hrs by equilibrium dialysis method; type: ADME, cell-free
[29] = Fraction unbound in beagle dog plasma at 0.1 to 10 uM after 6 hrs by equilibrium dialysis method; type: ADME, cell-free, Canis lupus familiaris
[30] = Fraction unbound in cynomolgus monkey plasma at 0.1 to 10 uM after 6 hrs by equilibrium dialysis method; type: ADME, cell-free, Macaca fascicularis
Plasma [31] = experiment: Fraction unbound in human plasma at 0.1 to 10 uM after 6 hrs by equilibrium dialysis method; type: ADME, cell-free
[32] = Chemical stability of the compound in pH 2 phosphate buffer assessed as compound remaining at room temperature after 1 week by HPLC analysis; type: physicochemical; conditions: read-out: Stability
[33] = Chemical stability of the compound in pH 4 acetate buffer assessed as compound remaining at room temperature after 1 week by HPLC analysis; type: physicochemical; conditions: read-out: Stability
[34] = Chemical stability of the compound in pH 7.4 phosphate buffer assessed as compound remaining at room temperature after 1 week by HPLC analysis; type: physicochemical; conditions: read-out: Stability
[35] = Chemical stability of the compound in pH 10 carbonate buffer assessed as compound remaining at room temperature after 1 week by HPLC analysis; type: physicochemical; conditions: read-out: Stability
[36] = Chemical stability of the compound in pH 2 phosphate buffer assessed as compound remaining at 60 degC after 1 week by HPLC analysis; type: physicochemical; conditions: read-out: Stability
[37] = Chemical stability of the compound in pH 4 acetate buffer assessed as compound remaining at 60 degC after 1 week by HPLC analysis; type: physicochemical; conditions: read-out: Stability
[38] = Chemical stability of the compound in pH 7.4 phosphate buffer assessed as compound remaining at 60 degC after 1 week by HPLC analysis; type: physicochemical; conditions: read-out: Stability
[39] = Chemical stability of the compound in pH 10 carbonate buffer assessed as compound remaining at 60 degC after 1 week by HPLC analysis; type: physicochemical; conditions: read-out: Stability
[40] = Chemical stability of the compound in pH 2 phosphate buffer assessed as compound remaining at room temperature after 4 weeks by HPLC analysis; type: physicochemical; conditions: read-out: Stability
[41] = Chemical stability of the compound in pH 4 acetate buffer assessed as compound remaining at room temperature after 4 weeks by HPLC analysis; type: physicochemical; conditions: read-out: Stability
[42] = Chemical stability of the compound in pH 7.4 phosphate buffer assessed as compound remaining at room temperature after 4 weeks by HPLC analysis; type: physicochemical; conditions: read-out: Stability
[43] = Chemical stability of the compound in pH 10 carbonate buffer assessed as compound remaining at room temperature after 4 weeks by HPLC analysis; type: physicochemical; conditions: read-out: Stability
[44] = Chemical stability of the compound in pH 2 phosphate buffer assessed as compound remaining at 60 degC after 4 weeks by HPLC analysis; type: physicochemical; conditions: read-out: Stability
[45] = Chemical stability of the compound in pH 4 acetate buffer assessed as compound remaining at 60 degC after 4 weeks by HPLC analysis; type: physicochemical; conditions: read-out: Stability
[46] = Chemical stability of the compound in pH 7.4 phosphate buffer assessed as compound remaining at 60 degC after 4 weeks by HPLC analysis; type: physicochemical; conditions: read-out: Stability
[47] = Chemical stability of the compound in pH 10 carbonate buffer assessed as compound remaining at 60 degC after 4 weeks by HPLC analysis; type: physicochemical; conditions: read-out: Stability
[48] = Chemical stability of the compound assessed as compound remaining at 75% relative humidity at 40 degC after 4 weeks by HPLC analysis; type: physicochemical; conditions: read-out: Stability
[49] = Chemical stability of the compound assessed as compound remaining at ambient relative humidity at 80 degC after 4 weeks by HPLC analysis; type: physicochemical; conditions: read-out: Stability
[50] = Physical stability of the compound at ambient relative humidity at 22 degC after 4 weeks by PXRD analysis; type: physicochemical; conditions: 672 h
[51] = Physical stability of the compound at 75% relative humidity at 40 degC after 4 weeks by PXRD analysis; type: physicochemical; conditions: 672 h
[52] = Physical stability of the compound at ambient relative humidity at 80 degC after 4 weeks by PXRD analysis; type: physicochemical; conditions: 672 h
Rattus norvegicus [53] = experiment: Ex vivo OX2 receptor occupancy in po dosed Sprague-Dawley rat brain after 15 mins by autoradiographic analysis; type: functional, organism-based
Rattus norvegicus [54] = experiment: Reduction in NREM sleep latency in po dosed rat electroencephalographic model administered at onset of dark phase by telemetry device; type: functional, organism-based
Rattus norvegicus [55] = experiment: Increase in NREM sleep time in po dosed rat electroencephalographic model administered at onset of dark phase measured for 2 hrs by telemetry device; type: functional, organism-based
Rattus norvegicus [56] = experiment: Effect on REM sleep time in rat electroencephalographic model at 1 to 30 mg/kg, po administered at onset of dark phase measured for 2 hrs by telemetry device; type: ADME, organism-based; conditions: in vivo

Ki (Orexin receptor type 2 [1]): 2.2 µM
Ki [2]: 6.85 µM
Ki (Orexin receptor type 2 [3]): 1.6 µM
SMILES: COc1cccc(OC)c1C(=O)N1C[C@@H]2CN(c3nc4ccc(Cl)cc4s3)C[C@@H]2C1

Ki [4]: 0.216 µM
SMILES: COc1cccc(OC)c1C(=O)N1CCCN(c2nc3ccc(Cl)cc3s2)CC1

remaining at 672 h [5]: 100%
Ki (Orexin receptor type 2 [6]): 0.01 µM
clearance [8]: 2.4 L/h/kg
Vd [9]: 0.7 L/kg
half-life [10]: 18 min
bioavailability [11]: 24%
PPB (Plasma [12]): 95.9%
PPB (Plasma [13]): 92.7%
fraction unbound at 5 h, 5 µM [14]: 0.119
clearance [15]: 2.16 L/h/kg
clearance [16]: 0.588 L/h/kg
clearance [17]: 0.96 L/h/kg
Vd [18]: 0.6 L/kg
Vd [19]: 0.7 L/kg
Vd [20]: 0.4 L/kg
half-life [21]: 12 min
half-life [22]: 66 min
half-life [23]: 24 min
bioavailability [24]: 16%
bioavailability [25]: 19%
bioavailability [26]: 6%
fraction unbound at 6 h [27]: 0.041
Fu (Plasma [28]): 5.6%
fraction unbound at 6 h [29]: 0.096
fraction unbound at 6 h [30]: 0.044
Fu (Plasma [31]): 2.9%
remaining at 168 h [32]: 100%
remaining at 168 h [33]: 99.7%
remaining at 168 h [34]: 101%
remaining at 168 h [35]: 101%
remaining at 168 h [36]: 101%
remaining at 168 h [37]: 99.4%
remaining at 168 h [38]: 102%
remaining at 168 h [39]: 102%
remaining at 672 h [40]: 102%
remaining at 672 h [41]: 101%
remaining at 672 h [42]: 103%
remaining at 672 h [43]: 102%
remaining at 672 h [44]: 101%
remaining at 672 h [45]: 102%
remaining at 672 h [46]: 99.8%
remaining at 672 h [47]: 102%
remaining at 672 h [48]: 100%
remaining at 672 h [49]: 100%
Stability [50]: Stable
Stability [51]: Stable
Stability [52]: Stable
EC50 (Rattus norvegicus [53]): 0.171 mg/L (≈ 0.42 µM)
Occ (Rattus norvegicus [53]): Dose-dependent effect
SMILES: Cc1cc(C)nc(N2C[C@H]3CN(C(=O)c4c(F)cccc4-n4nccn4)C[C@H]3C2)n1 [SELTOREXANT]
Occ (Rattus norvegicus [7]): 71%
ED50 (Rattus norvegicus [53]; po): 3 mg/kg
Activity (Rattus norvegicus [54]): Dose-dependent effect
Activity (Rattus norvegicus [55]): Dose-dependent effect
Activity (Rattus norvegicus [56]): Non-toxic
